Patent US7560121B1 (LTS Lohmann Therapie-Systeme AG, priority 1999, dated 2009)
Where a name gives a salt, the structure may show the parent alone.

How the values were obtained:
[1] = Solubility of fluphenazine dihydrochloride in poly(meth)acrylate pressure-sensitive adhesives; assay type: physicochemical
Excerpt: Addition of Eudragit E100 (Röhm Pharma GmbH) was therefore provided for in all cases. This poly-(meth)acrylate has trialkylamino groups in its lateral chain and is capable of functioning as an ion-exchange resin. In this way, the chloride ions of the fluphenazine dihydrochloride are bonded to Eudragit E100 while protons are accepted simultaneously, with fluphenazine being formed as a free base in a certain equilibrium. Advantageous is an at least equimolar ratio of Eudragit E100 and fluphenazine dihydrochloride, i.e. of amounts by weight having the same equivalent weight calculated as potassium hydroxide.

[2] = in vivo; cited from earlier work
[3] = In vitro skin permeation through human epidermis (modified Franz cell, HPLC); assay type: in vitro ADME; details: 32° C., Oppanol-based matrix with Eudragit E100 and oleic acid, n=3
Description: Skin permeability was examined in vitro using full thickness cow udder skin and human epidermis, the latter having been separated from human full-thickness skin by heat separation.
The tests were carried out at 32° C. in a suitable permeation device (modified Franz cell), and fluphenazine was measured in the resultant samples using a suitable HPLC method. All indicated values are based on n=3 samples.

| solubility in Durotak 387-2051 ([1]; with addition of Eudragit E100) | solubility in Durotak 387-2287 ([1]; with addition of Eudragit E100) | solubility in poly(meth)acrylate adhesive polymers or the organic solvents required for processing ([1]; without Eudragit E100, result in words) | maximum flow rate of fluphenazine base [3] [μg/h·cm^2] | Structure (SMILES) | half-life in blood plasma [2] [h] |
| --- | --- | --- | --- | --- | --- |
| at least 15 %-wt. | at least 10 %-wt. | almost insoluble |  | OCCN1CCN(CCCN2c3ccccc3Sc3ccc(C(F)(F)F)cc32)CC1 [fluphenazine dihydrochloride] |  |
|  |  |  | 2.9 | OCCN1CCN(CCCN2c3ccccc3Sc3ccc(C(F)(F)F)cc32)CC1 [fluphenazine] | 15 |
